Where two headings read alike, the source gives them in different places.

Experiment [1] addresses Met (phospho-Met, HGF-stimulated PC-3 prostate cancer cells) (Homo sapiens (Human), UniProt P08581). Briefly: Met autophosphorylation ELISA in PC-3 cells (Example F). It counts as cell-based. Particulars: cellular activity; Met autophosphorylation ELISA in PC-3 cells; read-out: c-Met IC50. In outline:
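IC50 values derive from a 4-parameter logistic fit of phospho-Met (panTyr) sandwich ELISA signals in PC-3 lysates, scaled between DMSO and reference-inhibitor wells. Cells, starved 3 h in serum-free medium, had 1 h compound exposure (8 doses, 0.3% DMSO) before 10 min stimulation with 100 ng/mL HGF.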
Background: In an ELISA, binding on a coated surface is turned into a signal by an enzyme label.

Experiment [2] addresses Human MET (residues 956-1390) (Homo sapiens (Human), UniProt P08581). The experiment can be described thus: Human Met kinase assay, HTRF KinEase (Example D-2). It counts as biochemical. The settings on record: read-out: c-Met IC50. The essentials:
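MET kinase domain (956-1390), 0.1 ng/well, in buffer with 5 mM MgCl2, 1 mM DTT and 1 mM MnCl2, phosphorylated a biotinylated peptide at ATP Km for 40 min at RT; 10 concentrations, 3% DMSO final. EDTA-stopped HTRF read after 60 min; IC50 from a 4-parameter logistic fit.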
On the technique in general: Time-resolved FRET reads energy transfer from a long-lived donor to a nearby acceptor.

Experiment [3] addresses Human KDR (residues 790-1356) (Homo sapiens (Human), UniProt P35968). The experiment can be described thus: Human KDR kinase assay, HTRF KinEase (Example B-2). It is filed as biochemical. In outline:
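Human KDR residues 790-1356 (0.1 ng/well) in buffer with 5 mM MgCl2, 1 mM MnCl2, 1 mM DTT, biotinylated peptide substrate, ATP at Km (4.0 μM), 3% DMSO, 10 compound concentrations; 40 min, room temperature. EDTA stop, streptavidin-XL665/Eu-TK antibody HTRF read 665/620 nm; 4-parameter IC50.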

In experiment [4] the target is Human MER (residues 528-999) (Homo sapiens (Human), UniProt Q12866). Briefly: Human Mer kinase assay, HTRF KinEase (Example C-2). It counts as biochemical. In outline:
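Recombinant MER 528-999 (1 ng/well) in buffer with 5 mM MgCl2 and 1 mM DTT was reacted with biotinylated peptide and ATP at Km (40 μM) for 60 min at room temperature. EDTA stop with SA-XL665 and Eu3+ TK antibody, then 665/620 nm HTRF read; IC50 from 4-parameter fit.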

Experiment [5] has as its target Mer (phospho-Mer, MERTK-transfected 293A cells) (Homo sapiens (Human), UniProt Q12866). Briefly: Mer autophosphorylation ELISA in transient transfected 293A cells (Example H). It counts as cell-based. Particulars: cellular activity; Mer autophosphorylation ELISA in transient transfected 293A cells. In outline: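 293A cells transiently transfected with human MERTK were treated 1 h in serum-free medium with an 8-point compound dilution (0.3% DMSO final). Lysates were assayed by phospho-Mer sandwich ELISA against a phospho-Mer standard; IC50 came from a 4-parameter logistic fit, normalised to DMSO (100%) and reference-inhibitor (0%) controls.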

Where [6] appears, read: protocol of Example D-2 (other compounds).
The mark [7] stands for this setting: protocol of Example B-2 (other compounds).
[8] abbreviates: protocol of Example C-2 (other compounds).

Human KDR (residues 790-1356), sequence (P35968 790-1356): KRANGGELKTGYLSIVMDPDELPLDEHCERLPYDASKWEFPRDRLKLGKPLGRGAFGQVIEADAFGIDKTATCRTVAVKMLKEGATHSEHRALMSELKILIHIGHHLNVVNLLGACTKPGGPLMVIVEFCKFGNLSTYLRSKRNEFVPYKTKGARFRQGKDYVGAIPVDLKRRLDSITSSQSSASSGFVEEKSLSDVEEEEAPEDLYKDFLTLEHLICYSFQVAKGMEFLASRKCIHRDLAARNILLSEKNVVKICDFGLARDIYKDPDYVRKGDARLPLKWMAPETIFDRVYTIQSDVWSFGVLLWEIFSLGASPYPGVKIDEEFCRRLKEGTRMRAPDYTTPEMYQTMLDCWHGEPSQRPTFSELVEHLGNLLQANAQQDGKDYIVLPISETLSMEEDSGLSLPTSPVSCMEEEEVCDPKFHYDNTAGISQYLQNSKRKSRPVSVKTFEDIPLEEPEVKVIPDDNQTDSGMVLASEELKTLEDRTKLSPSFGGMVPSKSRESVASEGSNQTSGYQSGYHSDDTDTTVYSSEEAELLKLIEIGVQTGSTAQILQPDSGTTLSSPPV
Human MER (residues 528-999), sequence (Q12866 528-999): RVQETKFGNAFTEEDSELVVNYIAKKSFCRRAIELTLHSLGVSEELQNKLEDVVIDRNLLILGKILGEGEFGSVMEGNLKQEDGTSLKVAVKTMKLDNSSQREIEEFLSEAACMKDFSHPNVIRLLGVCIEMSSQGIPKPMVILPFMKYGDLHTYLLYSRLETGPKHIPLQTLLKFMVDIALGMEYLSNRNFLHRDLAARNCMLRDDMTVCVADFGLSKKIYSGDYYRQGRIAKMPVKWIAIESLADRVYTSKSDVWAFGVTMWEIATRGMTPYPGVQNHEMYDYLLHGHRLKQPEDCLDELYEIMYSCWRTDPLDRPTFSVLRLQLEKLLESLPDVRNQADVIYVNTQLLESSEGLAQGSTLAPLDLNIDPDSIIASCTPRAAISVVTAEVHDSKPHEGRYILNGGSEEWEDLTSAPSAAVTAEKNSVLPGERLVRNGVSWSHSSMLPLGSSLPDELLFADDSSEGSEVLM
Human MET (residues 956-1390), sequence (P08581 956-1390): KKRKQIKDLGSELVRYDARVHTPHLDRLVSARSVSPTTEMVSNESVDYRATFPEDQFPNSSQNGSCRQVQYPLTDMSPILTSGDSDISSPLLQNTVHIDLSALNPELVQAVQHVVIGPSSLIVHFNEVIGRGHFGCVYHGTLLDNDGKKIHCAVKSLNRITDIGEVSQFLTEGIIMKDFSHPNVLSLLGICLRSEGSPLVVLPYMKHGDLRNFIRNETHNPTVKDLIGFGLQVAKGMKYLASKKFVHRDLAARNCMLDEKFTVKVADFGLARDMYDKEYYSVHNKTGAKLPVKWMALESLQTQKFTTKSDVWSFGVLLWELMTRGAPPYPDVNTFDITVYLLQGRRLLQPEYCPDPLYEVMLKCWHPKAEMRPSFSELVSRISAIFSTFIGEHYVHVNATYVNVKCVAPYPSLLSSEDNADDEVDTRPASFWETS
Mer (phospho-Mer, MERTK-transfected 293A cells), sequence (Q12866 21-999): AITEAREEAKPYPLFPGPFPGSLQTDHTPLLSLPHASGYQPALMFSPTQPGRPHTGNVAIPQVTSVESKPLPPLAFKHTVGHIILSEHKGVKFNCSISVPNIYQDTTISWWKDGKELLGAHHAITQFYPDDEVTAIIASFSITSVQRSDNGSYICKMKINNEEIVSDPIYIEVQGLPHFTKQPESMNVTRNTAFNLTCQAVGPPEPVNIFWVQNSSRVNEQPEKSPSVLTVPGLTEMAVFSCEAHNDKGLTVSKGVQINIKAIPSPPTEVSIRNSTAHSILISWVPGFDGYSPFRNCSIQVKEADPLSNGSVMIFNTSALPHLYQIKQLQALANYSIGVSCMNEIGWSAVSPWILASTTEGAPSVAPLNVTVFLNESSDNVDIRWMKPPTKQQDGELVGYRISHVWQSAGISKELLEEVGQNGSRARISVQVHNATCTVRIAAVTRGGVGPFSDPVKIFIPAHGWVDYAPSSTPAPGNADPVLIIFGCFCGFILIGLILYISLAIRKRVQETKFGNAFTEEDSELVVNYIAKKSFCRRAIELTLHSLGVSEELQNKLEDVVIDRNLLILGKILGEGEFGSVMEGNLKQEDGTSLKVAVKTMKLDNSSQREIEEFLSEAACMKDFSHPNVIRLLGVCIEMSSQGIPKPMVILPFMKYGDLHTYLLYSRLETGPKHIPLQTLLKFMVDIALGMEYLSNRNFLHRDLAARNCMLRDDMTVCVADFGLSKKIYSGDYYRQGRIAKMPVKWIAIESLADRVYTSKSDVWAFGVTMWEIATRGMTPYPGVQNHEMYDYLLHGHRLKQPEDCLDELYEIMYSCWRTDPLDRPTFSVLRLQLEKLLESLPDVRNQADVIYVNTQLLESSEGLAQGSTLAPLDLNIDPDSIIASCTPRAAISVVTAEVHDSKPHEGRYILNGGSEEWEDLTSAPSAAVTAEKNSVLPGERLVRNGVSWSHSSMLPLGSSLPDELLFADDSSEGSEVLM
Met (phospho-Met, HGF-stimulated PC-3 prostate cancer cells), sequence (P08581 25-1390): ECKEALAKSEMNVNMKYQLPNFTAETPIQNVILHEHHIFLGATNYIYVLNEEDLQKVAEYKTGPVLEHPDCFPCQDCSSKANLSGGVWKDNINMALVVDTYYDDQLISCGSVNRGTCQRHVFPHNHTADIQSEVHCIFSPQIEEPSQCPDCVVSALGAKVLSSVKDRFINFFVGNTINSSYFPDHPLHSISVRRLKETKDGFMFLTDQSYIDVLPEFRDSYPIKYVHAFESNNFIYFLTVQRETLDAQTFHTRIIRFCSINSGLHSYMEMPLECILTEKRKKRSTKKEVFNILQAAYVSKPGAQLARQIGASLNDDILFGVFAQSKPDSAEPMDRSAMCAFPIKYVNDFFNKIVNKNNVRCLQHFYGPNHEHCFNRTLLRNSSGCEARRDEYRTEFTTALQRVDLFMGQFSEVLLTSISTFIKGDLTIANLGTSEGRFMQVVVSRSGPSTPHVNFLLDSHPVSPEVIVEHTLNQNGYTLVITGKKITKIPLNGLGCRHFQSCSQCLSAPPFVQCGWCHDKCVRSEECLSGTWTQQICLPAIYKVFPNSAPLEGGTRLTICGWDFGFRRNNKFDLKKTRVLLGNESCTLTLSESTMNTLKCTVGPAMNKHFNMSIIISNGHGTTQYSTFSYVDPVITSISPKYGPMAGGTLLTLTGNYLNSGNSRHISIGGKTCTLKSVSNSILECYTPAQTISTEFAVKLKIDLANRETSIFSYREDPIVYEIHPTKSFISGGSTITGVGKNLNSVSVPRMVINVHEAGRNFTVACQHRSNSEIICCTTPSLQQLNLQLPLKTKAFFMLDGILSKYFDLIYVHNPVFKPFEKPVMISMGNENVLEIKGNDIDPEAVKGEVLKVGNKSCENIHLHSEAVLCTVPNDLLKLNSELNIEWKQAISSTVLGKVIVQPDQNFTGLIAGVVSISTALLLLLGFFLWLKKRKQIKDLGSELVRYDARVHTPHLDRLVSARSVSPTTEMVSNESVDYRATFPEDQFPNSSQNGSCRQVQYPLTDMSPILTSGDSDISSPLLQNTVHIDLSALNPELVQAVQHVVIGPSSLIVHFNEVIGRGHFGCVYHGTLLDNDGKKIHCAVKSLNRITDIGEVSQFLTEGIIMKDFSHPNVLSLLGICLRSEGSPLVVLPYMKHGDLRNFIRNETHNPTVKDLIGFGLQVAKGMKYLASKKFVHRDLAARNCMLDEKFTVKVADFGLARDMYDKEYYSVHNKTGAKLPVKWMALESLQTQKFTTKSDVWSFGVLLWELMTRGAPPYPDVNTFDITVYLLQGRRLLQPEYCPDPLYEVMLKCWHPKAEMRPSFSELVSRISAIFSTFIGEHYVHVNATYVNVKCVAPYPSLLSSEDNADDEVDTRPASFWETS

On to `COc1cc2nccc(Oc3ccc(NC(=O)c4cnc(C(F)(F)F)c(-c5ccc(F)cc5)c4O)cc3F)c2nc1OC` [Compound 79, N-[4-[(6,7-Dimethoxy-1,5-naphthyridin-4-yl)oxy]-3-fluorophenyl]-5-(4-fluorophenyl)-4-hydroxy-6-(trifluoromethyl)pyridine-3-carboxamide], for which the IC50 – broadly, the concentration that gives 50% inhibition – is 100 to 300 nM in experiment [1]; 100 to 300 nM in experiment [2] (setting [6]); above 300 nM in experiment [3] (setting [7]); below 100 nM in experiment [4] (setting [8]); below 100 nM in experiment [5].
With `COc1cc2nccc(Oc3ccc(NC(=O)c4cn(-c5ccccn5)cc(-c5ccc(F)cc5)c4=O)cc3F)c2nc1OC` [Compound 124, N-[4-[(6,7-Dimethoxy-1,5-naphthyridin-4-yl)oxy]-3-fluorophenyl]-5-(4-fluorophenyl)-4-oxo-1-pyridin-2-ylpyridine-3-carboxamide], the 50% inhibitory concentration (IC50) in experiment [1] was below 100 nM; in experiment [2] (setting [6]), below 100 nM; in experiment [3] (setting [7]), above 300 nM; in experiment [4] (setting [8]), below 100 nM; in experiment [5] it was below 100 nM.
As to `COc1cc2nccc(Oc3ccc(NC(=O)c4cn(-c5cnn(C)c5)c(C)c(-c5ccc(F)cc5)c4=O)cc3)c2nc1OC` [Compound 141, N-[4-[(6,7-Dimethoxy-1,5-naphthyridin-4-yl)oxy]phenyl]-5-(4-fluorophenyl)-6-methyl-1-(1-methylpyrazol-4-yl)-4-oxopyridine-3-carboxamide], the IC50 in experiment [1] is below 100 nM; in experiment [2] (setting [6]) it was below 100 nM; in experiment [3] (setting [7]), above 300 nM; in experiment [4] (setting [8]), below 100 nM; in experiment [5], below 100 nM.
`Cc1ncc(C(=O)Nc2ccc(Oc3ccnc4cc(Br)cnc34)cc2)c(O)c1-c1ccc(F)cc1` [Compound 149, N-[4-[(7-Bromo-1,5-naphthyridin-4-yl)oxy]phenyl]-5-(4-fluorophenyl)-4-hydroxy-6-methylpyridine-3-carboxamide]: the IC50 in experiment [1] is below 100 nM; in experiment [2] (setting [6]), below 100 nM; in experiment [3] (setting [7]), 100 to 300 nM; in experiment [4] (setting [8]), below 100 nM; in experiment [5] it was below 100 nM.
For the molecule `COc1cnc2c(Oc3ccc(NC(=O)c4cn(C(C)(C)C)c(C)c(-c5ccc(F)cc5)c4=O)cc3)ccnc2c1` [Compound 165, 1-tert-Butyl-5-(4-fluorophenyl)-N-[4-[(7-methoxy-1,5-naphthyridin-4-yl)oxy]phenyl]-6-methyl-4-oxopyridine-3-carboxamide], the concentration for half-maximal inhibition (IC50) is below 100 nM in experiment [2] (setting [6]), above 300 nM in experiment [3] (setting [7]), below 100 nM in experiment [4] (setting [8]) and below 100 nM in experiment [5].
Consider `COc1cc2nccc(Oc3ccc(NC(=O)c4c(C)n(C)cc(-c5ccc(F)cc5)c4=O)cc3)c2nc1OC` [Compound 238, N-[4-[(6,7-Dimethoxy-1,5-naphthyridin-4-yl)oxy]phenyl]-5-(4-fluorophenyl)-1,2-dimethyl-4-oxopyridine-3-carboxamide], for which the 50% inhibitory concentration (IC50) in experiment [1] is below 100 nM; in experiment [2] (setting [6]), below 100 nM; in experiment [3] (setting [7]), above 300 nM; in experiment [4] (setting [8]), below 100 nM; in experiment [5] it was below 100 nM.
As for `COc1cnc2c(Oc3ccc(NC(=O)c4c(C)ncn(-c5ccc(F)cc5)c4=O)cc3)ccnc2c1` [Compound 255, 1-(4-Fluorophenyl)-N-[4-[(7-methoxy-1,5-naphthyridin-4-yl)oxy]phenyl]-4-methyl-6-oxopyrimidine-5-carboxamide], the 50% inhibitory concentration (IC50) in experiment [1] was 100 to 300 nM; in experiment [2] (setting [6]), 100 to 300 nM; in experiment [3] (setting [7]), above 300 nM; in experiment [4] (setting [8]) it was below 100 nM; in experiment [5], below 100 nM.
Turning to `COc1cc2nccc(Oc3ccc(NC(=O)c4cnc(NC(=O)OC(C)(C)C)n(-c5ccc(F)cc5)c4=O)cc3F)c2nc1OC` [Compound 344, tert-butyl N-[5-[[4-[(6,7-dimethoxy-1,5-naphthyridin-4-yl)oxy]-3-fluorophenyl]icarbamoyl]-1-(4-fluorophenyl)-6-oxopyrimidin-2-yl]carbamate], the IC50 is 100 to 300 nM in experiment [2] (setting [6]), 100 to 300 nM in experiment [3] (setting [7]) and below 100 nM in experiment [4] (setting [8]).
In the case of `CCOc1nc(C)c(-c2ccc(F)cc2)c(O)c1C(=O)Nc1ccc(Oc2ccnc3cc(OC)c(OC)nc23)c(F)c1` [Compound 365, N-[4-[(6,7-dimethoxy-1,5-naphthyridin-4-yl)oxy]-3-fluorophenyl]-2-ethoxy-5-(4-fluorophenyl)-4-hydroxy-6-methylpyridine-3-carboxamide], the concentration for half-maximal inhibition (IC50) in experiment [2] (setting [6]) was above 300 nM; in experiment [3] (setting [7]), above 300 nM; in experiment [4] (setting [8]), 100 to 300 nM.
As to `COc1cc2nccc(Oc3ccc(NC(=O)c4c(C)nc(OC)c(-c5ccc(F)cc5)c4OC)cc3F)c2nc1OC` [Compound 444, N-[4-[(6,7-dimethoxy-1,5-naphthyridin-4-yl)oxy]-3-fluorophenyl]-5-(4-fluorophenyl)-4,6-dimethoxy-2-methylpyridine-3-carboxamide], the half-maximal inhibitory concentration (IC50) in experiment [2] (setting [6]), in experiment [3] (setting [7]) and in experiment [4] (setting [8]) was above 300 nM throughout.
As for `C=C(C)c1cc2nccc(Oc3ccc(NC(=O)c4cnc(C)c(-c5ccc(F)cc5C)c4O)cc3F)c2nc1OC` [Compound 449, N-[3-fluoro-4-[(6-methoxy-7-prop-1-en-2-yl-1,5-naphthyridin-4-yl)oxy]phenyl]-5-(4-fluoro-2-methylphenyl)-4-hydroxy-6-methylpyridine-3-carboxamide], the figures for the half-maximal inhibitory concentration (IC50) in experiment [2] (protocol of Example D-2), in experiment [3] (protocol of Example B-2) and in experiment [4] (protocol of Example C-2) were above 300 nM, above 300 nM and below 100 nM, respectively.
For the molecule `C=C(C)c1cc2nccc(Oc3ccc(NC(=O)c4cnc(C)c(-c5ccc(F)cc5)c4O)cc3F)c2nc1OC` [Compound 452, N-[3-fluoro-4-[(6-methoxy-7-prop-1-en-2-yl-1,5-naphthyridin-4-yl)oxy]phenyl]-5-(4-fluorophenyl)-4-hydroxy-6-methylpyridine-3-carboxamide], the figures for the IC50 in experiment [2] (protocol of Example D-2), in experiment [3] (protocol of Example B-2) and in experiment [4] (protocol of Example C-2) were above 300 nM, 100 to 300 nM and below 100 nM, respectively.
In the same order, the values of `C=C(C)c1cc2nccc(Oc3ccc(NC(=O)c4c(C)nc(C)c(-c5ccc(F)cc5)c4O)cc3F)c2nc1OC` [Compound 453, N-[3-fluoro-4-[(6-methoxy-7-prop-1-en-2-yl-1,5-naphthyridin-4-yl)oxy]phenyl]-5-(4-fluorophenyl)-4-hydroxy-2,6-dimethylpyridine-3-carboxamide] are above 300 nM, 100 to 300 nM and below 100 nM.
In the same order, the values of `COc1cc2nccc(Oc3ccc(NC(=O)c4cn(C(C)C)c(C)c(-c5ccc(F)cc5)c4=O)cc3F)c2nc1N(C)C` [Compound 583, N-[4-[[6-(Dimethylamino)-7-methoxy-1,5-naphthyridin-4-yl]oxy]-3-fluorophenyl]-5-(4-fluorophenyl)-6-methyl-4-oxo-1-propan-2-ylpyridine-3-carboxamide] are below 100 nM, above 300 nM and below 100 nM.
Taken in the same sequence, the figures for `COc1nc2c(Oc3ccc(NC(=O)c4cnc(C)c(-c5ccc(F)cc5)c4O)cc3F)ccnc2cc1C(C)C` [Compound 590, N-[3-Fluoro-4-[(6-methoxy-7-propan-2-yl-1,5-naphthyridin-4-yl)oxy]phenyl]-5-(4-fluorophenyl)-4-hydroxy-6-methylpyridine-3-carboxamide] were above 300 nM, above 300 nM and below 100 nM.
Regarding `COc1nc2c(Oc3ccc(NC(=O)c4cnc(C)c(-c5ccc(F)cc5C)c4O)cc3F)ccnc2cc1C(C)C` [Compound 591, N-[3-Fluoro-4-[(6-methoxy-7-propan-2-yl-1,5-naphthyridin-4-yl)oxy]phenyl]-5-(4-fluoro-2-methylphenyl)-4-hydroxy-6-methylpyridine-3-carboxamide], the IC50 was above 300 nM in experiment [2] (protocol of Example D-2), above 300 nM in experiment [3] (protocol of Example B-2) and 100 to 300 nM in experiment [4] (protocol of Example C-2).
Regarding `COc1nc2c(Oc3ccc(NC(=O)c4c(C)nc(C)c(-c5ccc(F)cc5)c4O)cc3F)ccnc2cc1C(C)C` [Compound 592, N-[3-Fluoro-4-[(6-methoxy-7-propan-2-yl-1,5-naphthyridin-4-yl)oxy]phenyl]-5-(4-fluorophenyl)-4-hydroxy-2,6-dimethylpyridine-3-carboxamide], the 50% inhibitory concentration (IC50) in experiment [2] (protocol of Example D-2) is above 300 nM; in experiment [3] (protocol of Example B-2) it was above 300 nM; in experiment [4] (protocol of Example C-2), below 100 nM.

Source of the values: patent US12371428B2 (Exelixis, Inc., priority 2019, dated 2025).
